From patent US20120219568A1, “EPIDITHIODIOXO[…] USES THEREOF IN TREATING CANCER” (priority 2011, published 2012)

Key:
HepG2 cells [1] = test: DNA fragmentation assay; type: cell-based, human; details: HepG2, agarose gel electrophoresis
Procedure: Tumor cells were lysed in lysis buffer (5 mM Tris-HCl, pH 8.0, 100 mM Ethylenediaminetetraacetic acid (EDTA), 1% (w/v) Sodium dodecyl sulfate (SDS), and proteinase K) at 45° C. for 2 h. RNA was removed by incubation with RNase A. Genomic DNA was extracted by phenol/chloroform/isoamyl alcohol (25:24:1) and precipitated with ethanol. The purified genomic DNA was then analyzed by electrophoresis in a 1.2% agarose gel.
(§1) The growth inhibitory effort of the purified verticillin A was examined on HepG2 cells. Tumor cells were cultured in the presence of different concentrations of verticillin A and analyzed for the growth by MTT assay 24 and 72 h later, respectively. […] To determine whether the growth inhibitory effect is due to increased tumor cell death, genomic DNA was isolated from the treated tumor cells and analyzed by agarose gel electrophoresis.

[2] = system: multiple types of tumor cell lines; test: Growth inhibition of multiple types of tumor cell lines; type: cell-based
Procedure: (§2) For cell viability assay, cells were seeded in wells of 96-well plates for 2 days and then treated with different concentrations of mushroom extract fractions or purified verticillin A for 2 days. The cells were then incubated with MTT (3-(4,5-dimethylthiazol-2-yl)-2,5-diphenyltetrazolium bromide) using the MTT assay kit (ATCC, Manassas, Va.) according to the manufacturer's instructions.
(§3) To determine whether verticillin A inhibits other types of tumor cell growth, Mammary carcinoma (Bcap-37 and MCF-7), heptocarcinoma (HepG2), cervical (HeLa), liver (SMMC-7721), lung (SPC-A1) cancer cells and T cell leukemia (Jurkat) were cultured in the presence of different concentrations of verticillin A and examined for the efforts of verticillin A on the growth rate of these tumor cells in vitro.

HepG2 cells [3] = test: MTT growth inhibition, HepG2; type: cell-based, human
Procedure: as §2, §1, §3

SW620 cells [4] = test: Cytochrome C release; type: cell-based, human; details: SW620, combinational treatment of verticillin A and TRAIL
Procedure: (§4) Tumor cells were lysed in lysis buffer containing 20 mM HEPES, pH 7.4, 20 mM NaCl, 10% glycerol, 1% Triton X-100, and a protease inhibitor cocktail (Calbiochem, La Jolla, Calif.). Cellular proteins were separated by 12% or 4-20% SDS-PAGE gradient gels, transferred to Immobilon-P membranes (Millipore, Bedford, Mass.) or nitrocellulose (Bio-Rad, Hercules, Calif.), and probed with the following primary antibodies: anti-FLIP (Cell Sinnaling, Danvers, Mass.) at 1:250; anti-survivin (Santa Cruz Biotech) at 1:100; anti-cIAP1 (cell signaling) at 1:250; anti-xIAP (cell Signaling) at 1:500; anti-Bad (Cell Signaling) at 1:1000; anti-Bax (Cell Signaling) at 1:2000; anti-Mcl-1 (Santa Cruz) at 1:100); anti-A-CDase (BD Biosciences) at 1:1000; anti-CytC (BD Biosciences) at 1:1000; and β-actin (Sigma, St Louis, Mo.) at 1:8000. The blots were then washed and incubated with horseradish peroxidase-conjugated anti-goat (Santa Cruz Biotech), anti-mouse or rabbit (Amersham-Pharmacia, Piscataway, N.J.) IgGs. Blots were detected using the ECL Plus Western detection kit (Amersham Pharmacia Biotech).

[5] = system: sarcoma (MC-WST-724), and mammary carcinoma (MCF-7); test: TRAIL co-treatment apoptosis in other tumor cell types; type: cell-based; details: co-treatment with verticillin A and TRAIL
Procedure: Cells were seeded in wells of 96-well plates for 2 days and then treated with different concentrations of mushroom extract fractions or purified verticillin A for 2 days. The cells were stained with propidium iodide (PI) (Trevigen, Gaithersburg, Md.) or PI plus annexin V-Alex Fluor 647 (Biolegend, San Diego, Calif.) and analyzed by flow cytometry.
The sensitization effects of verticillin A was examined in other types of tumor cells.

BNIP3 = BNIP3 expression level; type: cell-based, human; details: SW620 and HepG2 cells
Procedure: Because verticillin A enhances tumor cell apoptosis through the mitochondrion-dependent pathway, the expression levels of apoptosis-related genes of the mitochondrion-mediated apoptosis pathway was analyzed.

Bcap-37 = test: MTT growth inhibition, Bcap-37; type: cell-based; details: Homo sapiens, Bcap37, Mammary Carcinoma, MTT assay
Procedure: as §2, §3

SW620 cells [6] = test: Sensitization to FasL-induced apoptosis; type: cell-based, human; details: SW620, verticillin A pre-treatment then recombinant FasL
Procedure: Because the Fas-mediated apoptosis and TRAIL-induced apoptosis share similar signaling pathways, it was next tested whether Verticillin A also sensitizes tumor cells to FasL-induced apoptosis. SW620 cells were treated with verticillin A, followed by treatment with recombinant FasL.

SW620 cells [7] = test: SW620 growth with anticancer drugs, MTT assay; type: cell-based, human; details: Verticillin A pretreatment, then Etoposide, Cisplatin, 5-FU or Doxorubicin
Procedure: as §2
Etoposie, Cisplatin, 5-FU and Doxorubicin are commonly used cancer drugs that suppress tumor cell growth through their cytotoxicity. High cytotoxicity is often associated with high dose of their drugs. Furthermore, tumor cells often develop resistance to these cytotoxic drugs. To determine whether Verticillin A can increase the efficacy of these drugs and overcome drug resistance, the effectiveness of Verticillin A combined with these 4 drugs in suppression of tumor cell growth was tested in vitro. SW620 cell sensitivity to these drugs was first measured. SW620 cells are resistant to Etoposide but sensitive to 5-FU. […] SW620 cells were next pretreated with Verticillin A, followed by treatment with Etoposide (1 μg/ml), Cisplatin (1 μg/ml), 5-FU ([…]) and Doxorubicin (0.01 μg/ml), respectively.

A-CDase = A-CDase protein level, Western blot; type: cell-based, human; details: after verticillin A treatment
Procedure: as §4
To elucidate the molecular mechanisms underlying verticillin A sensitization of tumor cells to TRAIL-mediated apoptosis, the protein levels of genes known to function in the mitochondrion-mediated apoptosis pathway were analyzed. […]

## CN1C(=O)[C@]23SS[C@]1(C)C(=O)N2C1Nc2ccccc2[C@@]1(C12c4ccccc4NC1N1C(=O)[C@@]4(C)SS[C@]1(C(=O)N4C)[C@H]2O)[C@@H]3O (some centres unmarked) [Verticillin A]
HepG2 cells [1]
  genomic DNA fragmentation: induces genomic DNA fragmentation
[2]; Bcap-37, MCF-7, HepG2, HeLa, SMMC-7721, SPC-A1, Jurkat
  growth of tumor cells in vitro: significantly inhibited the growth of all these tumor cells
[2]; span over the tumor cell lines of Table 1, read-out: IC50 for multiple types of cancer cells
  IC50: < 200 nM
HepG2 cells [3]; HepG2, MTT assay 24 and 72 h
  concentration at which the inhibitory effect reached plateau: 100 to 150 nM
  lowest concentration exhibiting growth inhibitory effect: 10 nM
HepG2 cells [3]; Homo sapiens, Hepatoma, HepG2, MTT assay
  IC50: 62 nM
HepG2 cells [3]; purified compound, cytotoxicity screen
  inhibitory activity against HepG2 cells: potent inhibitory activity
SW620 cells [4]
  cytochrome C release: dramatically increased cytochrome C release
[5]
  apoptosis rate versus single agent alone: significantly increased the apoptosis rate
BNIP3
  BNIP3 expression level: increased BNIP3 expression level in a dose-dependent manner
Bcap-37
  IC50: 119 nM
SW620 cells [6]
  sensitization to FasL-induced apoptosis: significantly increases tumor cells to FasL-induced apoptosis
SW620 cells [7]
  tumor growth inhibitory effect of the drugs combined with Verticillin A: significantly increased the tumor growth inhibitory effects
A-CDase
  A-CDase expression level: decreased after verticillin A treatment at a dose-dependent manner
